{
  "source": "patent US20030096237A1",
  "about": "“Determination of the ability of patients to respond to a tumor treatment” (priority 2000, published 2003)",
  "assay_in_all_cases": "proliferation inhibition, 3H-Thymidine incorporation",
  "assay_type_in_all_cases": "cell-based, human",
  "conditions_in_all_cases": "concentration inducing at least 50% inhibition of maximal proliferation",
  "key": {"[1]": {"system": "CNCM I-2547", "method": "(§1) Melanoma cell lines were screened for their sensitivity to proliferation inhibition and HLA class I induction. The study was done of six cell lines (CNCM I-2544, CNCM I-2545, CNCM I-2546, CNCM I-2547, CNCM I-2548 and CNCM I-2549).\n(§2) All these cell lines were cultured in RPMI medium supplemented with 10% FCS, glutamine (2 mM), sodium pyruvate (1 mM), non-essential amino acids and HEPES buffer (10 mM) (all from GIBCO Life Sciences, Paisley, UK). When confluent, the cells were passaged by trypsinization.\n(§3) A number of established melanoma cell lines were assayed for their sensitivity to IFN-α by testing the capacity of IFN-α to inhibit their proliferation and to increase their surface expression of HLA class I determinants."}, "[2]": {"system": "CNCM I-2546", "method": "as §1, §2, §3"}, "[3]": {"system": "CNCM I-2548", "method": "as §1, §2, §3"}, "[4]": {"system": "CNCM I-2544", "method": "as §1, §2, §3"}},
  "data": [
    {"substance": "IFN-α", "values": [
      {"measurement": "proliferation inhibition (IC50)", "setting": "[1]", "result": 10, "unit": "U/ml"},
      {"measurement": "proliferation inhibition (IC50)", "setting": "[2]", "result": 100, "unit": "U/ml"},
      {"measurement": "proliferation inhibition (IC50)", "setting": "[3]", "result": 10, "unit": "U/ml"},
      {"measurement": "proliferation inhibition (IC50)", "setting": "[4]", "result": 100, "unit": "U/ml"}
    ]}
  ]
}
